Laboratory results taken from patent US7605168B2 (Plexxikon, Inc., priority 2004, dated 2009).

Assays:
[1] = target: T1, PDE4B: catalytic domain of human PDE4B from S152-S528 (Homo sapiens, UniProt Q07343); experiment: PDE4 IC50 determination by Scintillation Proximity Assay (SPA), PDE4B catalytic domain; assay type: biochemical; settings: [3H]cAMP SPA, 30 min at 30° C.
T1 construct: The catalytic domain of human PDE4B from S152-S528; His6 (N, cleaved yes); thrombin cleavage site (N, cleaved yes); made in house; host or cells: E. coli BL21 (DE3) RIL
T1 sequence (Q07343 324-700): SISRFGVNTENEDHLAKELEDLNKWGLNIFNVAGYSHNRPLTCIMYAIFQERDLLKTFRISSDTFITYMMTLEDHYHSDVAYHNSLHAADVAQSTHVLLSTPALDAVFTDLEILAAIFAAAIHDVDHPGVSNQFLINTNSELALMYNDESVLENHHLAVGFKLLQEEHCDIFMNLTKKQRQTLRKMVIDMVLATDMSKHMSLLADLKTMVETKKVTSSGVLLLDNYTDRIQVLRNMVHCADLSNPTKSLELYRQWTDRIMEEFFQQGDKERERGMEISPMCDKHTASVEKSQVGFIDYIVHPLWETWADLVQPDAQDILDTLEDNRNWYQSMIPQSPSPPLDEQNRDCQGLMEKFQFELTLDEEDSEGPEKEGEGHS
Method in brief: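 Human PDE4B catalytic domain (80 ng/ml) hydrolysed [3H]cAMP in 50 mM Tris pH 7.5, 8.3 mM MgCl, 1.7 mM EGTA, 0.01% BSA for 30 min at 30 °C. Reaction was stopped with yttrium silicate SPA beads in 18 mM ZnSO4, and bound [3H]AMP was counted by scintillation. IC50 came from non-linear regression.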

[2] = target: T2, PDE4D5: full-length human PDE4D5 isozyme (Homo sapiens, UniProt Q08499); experiment: PDE4 IC50 determination by Scintillation Proximity Assay (SPA), full-length PDE4D5; assay type: biochemical; settings: cell lysate, [3H]cAMP SPA
T2 construct: made in house; host or cells: baculovirus infected insect cells (pFastBacHT)
T2 sequence (Q08499 with tags, fused parts or gaps isoform Q08499-6): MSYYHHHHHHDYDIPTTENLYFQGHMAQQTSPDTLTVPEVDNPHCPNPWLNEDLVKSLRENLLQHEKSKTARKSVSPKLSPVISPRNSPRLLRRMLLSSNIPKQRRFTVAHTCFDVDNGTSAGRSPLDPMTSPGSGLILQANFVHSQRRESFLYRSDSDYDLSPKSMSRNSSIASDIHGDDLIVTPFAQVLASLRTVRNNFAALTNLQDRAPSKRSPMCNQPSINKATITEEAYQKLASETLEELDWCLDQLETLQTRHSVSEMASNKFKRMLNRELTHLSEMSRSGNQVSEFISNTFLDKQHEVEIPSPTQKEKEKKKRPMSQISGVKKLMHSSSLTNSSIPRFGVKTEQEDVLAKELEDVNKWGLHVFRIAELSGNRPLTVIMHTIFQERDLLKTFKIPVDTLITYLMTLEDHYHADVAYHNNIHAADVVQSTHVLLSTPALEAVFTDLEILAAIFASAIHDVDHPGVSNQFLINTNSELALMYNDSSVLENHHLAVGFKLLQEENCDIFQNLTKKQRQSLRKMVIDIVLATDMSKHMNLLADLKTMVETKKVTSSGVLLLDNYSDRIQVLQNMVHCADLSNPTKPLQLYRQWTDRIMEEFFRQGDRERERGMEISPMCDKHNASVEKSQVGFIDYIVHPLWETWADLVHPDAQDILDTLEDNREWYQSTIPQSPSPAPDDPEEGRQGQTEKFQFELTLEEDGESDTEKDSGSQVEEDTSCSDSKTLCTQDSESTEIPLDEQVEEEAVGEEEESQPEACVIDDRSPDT
Method in brief: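 Unpurified enzyme from cell lysates (PDE4B2 2.5 μl, PDE4D5 0.083 μl of 50% glycerol stock/ml) hydrolysing [3H]cAMP in 50 mM Tris pH 7.5, 8.3 mM MgCl, 1.7 mM EGTA, 0.01% BSA, 30 min at 30 °C. Stopped with yttrium silicate SPA beads in 18 mM ZnSO4; bead-bound [3H]AMP counted. IC50 by non-linear regression.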

[3] = tested on: TNF-α release from whole blood cultures stimulated with LPS; experiment: IC50 by TNF alpha production upon stimulation of whole blood cultures with LPS; assay type: cell-based; settings: human whole blood (buffy coat) culture, 100 ng/ml LPS, 4 hours; read-out: h TNFα IC50
Method in brief: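 Human buffy coat, diluted with 7 volumes of RPMI/2.5% heat-inactivated FBS, was preincubated with compound (8-point 1:3 series) for 1 h at 37 °C. It was then stimulated with 100 ng/ml LPS (final) for 4 h. Supernatant TNF-α was measured by sandwich ELISA at 450 nm, and IC50 was set between DMSO (0%) and PDE4-inhibitor (100%) controls.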

Q: What does the source list for `CCOc1ccc2ccccc2c1C(=O)n1cc(-c2ccc(OC)c(OC)c2)c2cccnc21` [Compound 52, [3-(3,4-Dimethoxy-phenyl)-pyrrolo[2,3-b]pyridin-1-yl]-(2-ethoxy-naphthalen-1-yl)-methanone]?
A: IC50 [1]: < 10 µM; IC50 [2]: < 10 µM; IC50 [3]: ≤ 10 µM

Q: With `CCOc1ccccc1C(=O)n1cc(-c2ccc(OC)c(OC)c2)c2cccnc21` [Compound 61, [3-(3,4-Dimethoxy-phenyl)-pyrrolo[2,3-b]pyridin-1-yl]-(2-ethoxy-phenyl)-methanone-amide] as the molecule, how does the IC50 [1] read?
A: < 10 µM

Q: And the IC50 [2]?
A: < 10 µM

Q: What about the IC50 [3] of the same molecule?
A: ≤ 10 µM
